Experimental data: patent US7262171B1, “Use of rhamnolipids in wound healing, treating burn shock, atherosclerosis, organ transplants, depression, schizophrenia and cosmetics” (Paradigm Biomedical, Inc., priority 1998, dated 2007)
Structures can show the parent of a compound that is named as a salt.

Assays:
WKY rats [1] = details: cited from earlier work
WKY rats [2] = details: cited from earlier work; remark: listed apart in the source
venous ulcer = test: Open wound healing in a patient with incurable venous ulcer; assay type: in vivo, human; details: 1% BAC-3 ointment, twice daily during 41 days
Method: The BAC-3 rhamnolipid was tested in the case of open wound healing, in a patient suffering around ten years from incurable venous ulcer. On the left leg, the patient had very thick layers of collagen with fibrotic lesions. […] Moreover, after treatment was finished, not only the collagen, but also the fibrotic lesions had disappeared as well. One year after the treatment, the treated skin lesions on the left leg appear normal, and all skin collagen and fibrotic layers had disappeared.

burn wounds [3] = test: Topical treatment of burn wounds, 15% of body surface; assay type: in vivo, Sprague-Dawley rats; details: 1% BAC-3 in ointment without chlorhexidine, started on 50th day after burning on open wounds; tapering regimen
Method: Method of burning. […] (Producer: Veterinary Laboratory Inc. Lenexa, Kans.).
Four rats were burned according to the described procedure using the wider opening in the Walker device (10×5 cm). All rats were treated from the beginning by placebo. After 50 days all burned rats had open wounds in average 2.3 cm at the neck, 1.3 cm in the middle and 1.8 cm at the tail.
On the 50th day after burning, animals were treated with 1% BAC-3 in ointment without chlorhexidine hydrochloride using the following procedure:
For the first 3 days, burn wounds were treated twice daily. After developing granulation tissue and the first sign of epithelization, animals were treated 3 days with 1% BAC-3 in ointment once daily. For the next four days, animals were treated every second day. After that wounds were treated every third day with 1% BAC-3 in ointment until the entire wound was re-epithelized. Re-epithelization was first completed at the middle of the wounds, then at the tails and finally at the necks. Whole epithelization in all animals was finished in 30 days.

burn wounds [4] = test: Topical treatment of burn wounds, 7% of body surface; details: for mean value of collagen tissue: sacrificed on 45th day, histopathology; for mean value of collagen concentration relative to group 1 D (placebo): placebo taken as 1100% (printed)
incision wounds = test: Tensile strength of incision wounds; assay type: in vivo, Sprague-Dawley rats; details: 0.1% BAC-3, 21 days after wounding, p<0.05 by ANOVA; FIG. 3
Excerpt: Incision wounds. Dorsal midline incisions were made in anesthetized rats. The animals were clipped free of their fur and prepared with alcohol. A 5.0 cm, midline, full-thickness incision was made with a scalpel through the panniclus carnosus.
The wounds were immediately closed with skin sutures spaced at a distance of 0.5 cm. Seven days later, all sutures were removed. On days 14 and 21 after incision, three animals from each group were killed using an overdose of sodium pentobarbital. Using a plexiglass template, a minimum of two samples of full-thickness skin were harvested perpendicular to the long axis of the wound for tensile strength determination. The skin samples were 9.0 mm wide at the wound by 2.0 cm long.
Tensile Strength Determination. The standard wound samples for each treatment cohort were examined for tensile strength by pulling the individual wounds apart in an Instron 4201 (Universal Testing instruments, Instron Engineering Co., Canton, Mass.) material tester. Special clamps were used to securely grip the tissue to avoid slippage as the wounds were pulled at a standard cross speed of 25 mm/min. The tensile strength of healthy skin was measured in killed animals from each group.
Effect of BAC-3 on Tensile Strength of Incision Wounds (FIG. 3) with and without chlorhexidine hydrochloride. The tensile strength of incision wounds was measured 21 days after wounding. […]

mice = details: cited from earlier work; for PCP-induced enhancement of immobility in the forced swimming test: doses that failed to produce antidepressant effects in control animals

For `CNCCCN1c2ccccc2CCc2ccccc21` [desipramine], the “incidence of stress ulcer” value (WKY rats [1]) is given as “reduces the incidence of stress ulcer” and the “immobility in the forced swim test” value (WKY rats [2]) is given as “reduces immobility”.
For `CCCCCCCC(CC(=O)O)OC(=O)CC(CCCCCCC)OC1OC(C)C(O)C(O)C1OC1OC(C)C(O)C(O)C1O` [BAC-3, (α-L-rhamnopyranosyl-(1,2)-α-L-rhamnopyranosyl)-3-hyroxydecanoyl-3-hydroxydecanoic acid], the “collagen and fibrotic lesions after treatment was finished” value (venous ulcer) was “disappeared”, the “treated skin lesions one year after the treatment” value (venous ulcer; one year after) was “appear normal” and the “patient's condition” value (venous ulcer; venous ulcer, left leg) was “significantly improved”. The “time to whole epithelization in all animals” value (burn wounds [3]) was 30 days, the “rate of burn wound closure (decrease in wound size) vs vehicle alone” value (burn wounds [4]; 0.1% BAC-3 in eucerin, without chlorhexidine, twice daily, days 14-45, FIG. 1) was “significantly faster” and the “extent of burn wound closure (wound size) vs vehicle alone” value (burn wounds [4]; 0.1% BAC-3 in eucerin, without chlorhexidine, days 14, 21 and 28, p<0.05 by ANOVA, FIG. 2) was “significantly smaller”. For the same molecule, the “body weights among the treatment groups” value (burn wounds [4]; 1% and 0.1% BAC-3 in eucerin vs vehicle, twice daily, 45 days) was “no significant differences”, the crust formation (burn wounds [4]; between all groups (1% and 0.1% BAC-3, with or without chlorhexidine, placebo), 45 days) was “no significant differences” and the granulation tissue (burn wounds [4]; group 1-A: 1% BAC-3 in ointment twice daily) was “prominently developed”. The “hair growth of dead skin during the healing period” value (burn wounds [4]; group 1-A: 1% BAC-3 in ointment, compared to the other groups) was “very prominent”, the “re-epithelization in the middle part of the burn wounds” value (burn wounds [4]; group 1-B: 0.1% BAC-3 in ointment twice daily) was “faster” and the “mean value of collagen tissue” value (burn wounds [4]; group 1 A: 1% BAC-3, without chlorhexidine) was 8.48 mm^2. For the same molecule, the “mean value of collagen concentration relative to group 1 D (placebo)” value (burn wounds [4]; group 1 A: 1% BAC-3) was 131.26, the “mean value of collagen tissue” value (burn wounds [4]; group 1 B: 0.1% BAC-3, without chlorhexidine) was 5.15 mm^2 and the “mean value of collagen concentration relative to group 1 D (placebo)” value (burn wounds [4]; group 1 B: 0.1% BAC-3) was 79.72. For the same molecule, the granulation tissue (burn wounds [4]; group 2-A: 1% BAC-3 in ointment plus 1% chlorhexidine hydrochloride twice daily) was “prominently developed”, the “re-epithelization in the middle part of the burn wounds” value (burn wounds [4]; group 2-B: 0.1% BAC-3 in ointment plus 1% chlorhexidine hydrochloride twice daily) was “faster” and the “tensile strength of incision wounds vs corresponding vehicle” value (incision wounds) was “significantly lower”.
In the case of `Cc1nc2n(c(=O)c1CCN1CCC(c3noc4cc(F)ccc34)CC1)CCCC2` [risperidone], the “PCP-induced enhancement of immobility in the forced swimming test” value (mice; mice) is listed as “attenuated”.
In the case of `c1ccc(C2(N3CCCCC3)CCCCC2)cc1` [PCP, phencyclidine], the forced swimming-induced immobility (mice; mice treated repeatedly with PCP (10 mg/kg per day S.C.), same stress again) is given as “enhanced” and the “persistence of the enhancing effect on immobility after withdrawal of the drug” value (mice; mice, PCP 10 mg/kg per day S.C.) is given as “at least 21 days”.
With `[H]/N=C(\N/C(=N/[H])NCCCCCCNC(=N)NC(=N)Nc1ccc(Cl)cc1)Nc1ccc(Cl)cc1` [chlorhexidine hydrochloride, reference compound] the wound irritation (burn wounds [4]; 1% chlorhexidine hydrochloride in combination with BAC-3, rats scratched lower and upper part of burn wounds) was “irritated wounds”.
In the case of `Cc1nc2sccn2c(=O)c1CCN1CCC(=C(c2ccc(F)cc2)c2ccc(F)cc2)CC1` [ritanserin], the “PCP-induced enhancement of immobility in the forced swimming test” value (mice; mice) is given as “attenuated”.
